Reference: the supplement of paper PMC10307832

Compound: CC(=O)c1c(C)c2cnc(Nc3ccc(N4CCNCC4)cn3)nc2n(C2CCCC2)c1=O [Palbociclib] + CS(=O)(=O)CCNCc1ccc(-c2ccc3ncnc(Nc4ccc(OCc5cccc(F)c5)c(Cl)c4)c3c2)o1 [Lapatinib] (partner 2 µM)
Experiment: relative viability (nuclei count vs DMSO), 5 days (fraction); higher = more cells survive
Summary of the method: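 Lung cancer cell lines were pin-tool dosed in 1536-well plates on the day after seeding, with either a lone drug or a fixed anchor-drug dose plus five library-drug doses (not always all listed) in √10 steps. Nuclei were counted on 4× images after 5 days. Relative viability is the ratio of treated-well to vehicle-well nuclei counts, with each value a median of duplicate plates.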

CAL-12T
relative viability (first compound 0.01 µM): 0.759 | relative viability (first compound 0.3162 µM): 0.367 | relative viability (first compound 1 µM): 0.334

NCI-H650
relative viability (first compound 0.01 µM): 1.3 | relative viability (first compound 0.1 µM): 0.657 | relative viability (first compound 0.3162 µM): 0.818 | relative viability (first compound 1 µM): 0.434

HARA
relative viability (first compound 0.01 µM): 0.715 | relative viability (first compound 0.03162 µM): 0.473 | relative viability (first compound 0.1 µM): 0.397 | relative viability (first compound 0.3162 µM): 0.363 | relative viability (first compound 1 µM): 0.225

LK-2
relative viability (first compound 0.01 µM): 1.09 | relative viability (first compound 0.1 µM): 0.642 | relative viability (first compound 0.3162 µM): 1.23 | relative viability (first compound 1 µM): 0.842

NCI-H1975
relative viability (first compound 0.01 µM): 0.959 | relative viability (first compound 0.03162 µM): 0.831 | relative viability (first compound 0.1 µM): 0.833 | relative viability (first compound 0.3162 µM): 0.922 | relative viability (first compound 1 µM): 0.711

NCI-H2023
relative viability (first compound 0.01 µM): 0.728 | relative viability (first compound 0.03162 µM): 0.165 | relative viability (first compound 0.1 µM): 0.545 | relative viability (first compound 0.3162 µM): 0.55 | relative viability (first compound 1 µM): 0.353

NCI-H661
relative viability (first compound 0.01 µM): 0.491 | relative viability (first compound 0.03162 µM): 0.437 | relative viability (first compound 0.1 µM): 0.477 | relative viability (first compound 0.3162 µM): 0.345 | relative viability (first compound 1 µM): 0.333

NCI-H2170
relative viability (first compound 0.01 µM): 0.29 | relative viability (first compound 0.03162 µM): 0.23 | relative viability (first compound 0.1 µM): 0.245 | relative viability (first compound 0.3162 µM): 0.233 | relative viability (first compound 1 µM): 0.25

NCI-H1651
relative viability (first compound 0.01 µM): 0.613 | relative viability (first compound 0.03162 µM): 0.739 | relative viability (first compound 0.1 µM): 0.735 | relative viability (first compound 0.3162 µM): 0.699 | relative viability (first compound 1 µM): 0.468

NCI-H1944
relative viability (first compound 0.01 µM): 0.798 | relative viability (first compound 0.03162 µM): 0.487 | relative viability (first compound 0.1 µM): 0.772 | relative viability (first compound 0.3162 µM): 0.758 | relative viability (first compound 1 µM): 0.402

NCI-H1437
relative viability (first compound 0.01 µM): 0.819 | relative viability (first compound 0.03162 µM): 0.755 | relative viability (first compound 0.1 µM): 0.693 | relative viability (first compound 0.3162 µM): 0.67 | relative viability (first compound 1 µM): 0.36

IA-LM
relative viability (first compound 0.01 µM): 0.701 | relative viability (first compound 0.03162 µM): 0.41 | relative viability (first compound 0.1 µM): 0.392 | relative viability (first compound 0.3162 µM): 0.264 | relative viability (first compound 1 µM): 0.143

EKVX
relative viability (first compound 0.01 µM): 0.184 | relative viability (first compound 0.03162 µM): 0.193 | relative viability (first compound 0.1 µM): 0.193 | relative viability (first compound 0.3162 µM): 0.178 | relative viability (first compound 1 µM): 0.12

NCI-H2347
relative viability (first compound 0.01 µM): 0.957 | relative viability (first compound 0.03162 µM): 0.823 | relative viability (first compound 0.1 µM): 0.71 | relative viability (first compound 0.3162 µM): 0.682 | relative viability (first compound 1 µM): 0.751

SK-MES-1
relative viability (first compound 0.01 µM): 0.439 | relative viability (first compound 0.03162 µM): 0.449 | relative viability (first compound 0.1 µM): 0.391 | relative viability (first compound 0.3162 µM): 0.406 | relative viability (first compound 1 µM): 0.344

H3255
relative viability (first compound 0.01 µM): 0.263 | relative viability (first compound 0.03162 µM): 0.246 | relative viability (first compound 0.1 µM): 0.2 | relative viability (first compound 0.3162 µM): 0.231 | relative viability (first compound 1 µM): 0.211

NCI-H1395
relative viability (first compound 0.01 µM): 0.867 | relative viability (first compound 0.03162 µM): 0.987 | relative viability (first compound 0.1 µM): 0.943 | relative viability (first compound 0.3162 µM): 0.928 | relative viability (first compound 1 µM): 0.688

NCI-H2405
relative viability (first compound 0.01 µM): 1.04 | relative viability (first compound 0.1 µM): 0.819 | relative viability (first compound 0.3162 µM): 0.901 | relative viability (first compound 1 µM): 0.761

UMC-11
relative viability (first compound 0.01 µM): 1.03 | relative viability (first compound 0.03162 µM): 0.75 | relative viability (first compound 0.1 µM): 0.593 | relative viability (first compound 0.3162 µM): 0.432 | relative viability (first compound 1 µM): 0.34

LCLC-97TM1
relative viability (first compound 0.01 µM): 0.891 | relative viability (first compound 0.1 µM): 0.894 | relative viability (first compound 0.3162 µM): 0.697 | relative viability (first compound 1 µM): 0.304

HCC-44
relative viability (first compound 0.01 µM): 0.886 | relative viability (first compound 0.03162 µM): 0.939 | relative viability (first compound 0.1 µM): 0.978 | relative viability (first compound 0.3162 µM): 0.979 | relative viability (first compound 1 µM): 1.02

NCI-H322M
relative viability (first compound 0.01 µM): 0.637 | relative viability (first compound 0.03162 µM): 0.563 | relative viability (first compound 0.1 µM): 0.513 | relative viability (first compound 0.3162 µM): 0.482 | relative viability (first compound 1 µM): 0.387

NCI-H1355
relative viability (first compound 0.01 µM): 0.949 | relative viability (first compound 0.1 µM): 0.901 | relative viability (first compound 0.3162 µM): 0.793 | relative viability (first compound 1 µM): 0.523

COR-L23
relative viability (first compound 0.01 µM): 1.02 | relative viability (first compound 0.03162 µM): 0.864 | relative viability (first compound 0.1 µM): 0.777 | relative viability (first compound 0.3162 µM): 0.667 | relative viability (first compound 1 µM): 0.418

NCI-H1915
relative viability (first compound 0.01 µM): 0.972 | relative viability (first compound 0.03162 µM): 0.379 | relative viability (first compound 0.1 µM): 1.04 | relative viability (first compound 0.3162 µM): 0.942 | relative viability (first compound 1 µM): 0.808

NCI-H1650
relative viability (first compound 0.01 µM): 0.774 | relative viability (first compound 0.03162 µM): 0.258 | relative viability (first compound 0.1 µM): 0.263 | relative viability (first compound 0.3162 µM): 0.578 | relative viability (first compound 1 µM): 0.351

NCI-H2126
relative viability (first compound 0.01 µM): 0.819 | relative viability (first compound 0.03162 µM): 0.581 | relative viability (first compound 0.1 µM): 0.728 | relative viability (first compound 0.3162 µM): 0.618 | relative viability (first compound 1 µM): 0.452

HCC-15
relative viability (first compound 0.01 µM): 0.934 | relative viability (first compound 0.1 µM): 0.75 | relative viability (first compound 0.3162 µM): 0.796 | relative viability (first compound 1 µM): 0.642

NCI-H838
relative viability (first compound 0.01 µM): 0.919 | relative viability (first compound 0.03162 µM): 0.927 | relative viability (first compound 0.1 µM): 0.767 | relative viability (first compound 0.3162 µM): 0.776 | relative viability (first compound 1 µM): 0.276

LOU-NH91
relative viability (first compound 0.01 µM): 0.8 | relative viability (first compound 0.03162 µM): 0.596 | relative viability (first compound 0.1 µM): 0.581 | relative viability (first compound 0.3162 µM): 0.569 | relative viability (first compound 1 µM): 0.557

LXF-289
relative viability (first compound 0.01 µM): 0.852 | relative viability (first compound 0.03162 µM): 0.888 | relative viability (first compound 0.1 µM): 0.838 | relative viability (first compound 0.3162 µM): 0.747 | relative viability (first compound 1 µM): 0.7

NCI-H1666
relative viability (first compound 0.01 µM): 0.644 | relative viability (first compound 0.03162 µM): 0.559 | relative viability (first compound 0.1 µM): 0.419 | relative viability (first compound 0.3162 µM): 0.474 | relative viability (first compound 1 µM): 0.384

NCI-H460
relative viability (first compound 0.01 µM): 0.92 | relative viability (first compound 0.03162 µM): 0.813 | relative viability (first compound 0.1 µM): 0.71 | relative viability (first compound 0.3162 µM): 0.516 | relative viability (first compound 1 µM): 0.207

SW 1573
relative viability (first compound 0.01 µM): 1.01 | relative viability (first compound 0.03162 µM): 1.09 | relative viability (first compound 0.1 µM): 1.04 | relative viability (first compound 0.3162 µM): 0.901 | relative viability (first compound 1 µM): 0.781

NCI-H1703
relative viability (first compound 0.01 µM): 0.99 | relative viability (first compound 0.1 µM): 0.833 | relative viability (first compound 0.3162 µM): 0.602 | relative viability (first compound 1 µM): 0.451

NCI-H2228
relative viability (first compound 0.01 µM): 1.26 | relative viability (first compound 0.03162 µM): 0.909 | relative viability (first compound 0.1 µM): 0.923 | relative viability (first compound 0.3162 µM): 0.95 | relative viability (first compound 1 µM): 0.959
